Source: US7553821B2, “Methods for selectively modulating survivin apoptosis pathways” (Yale University, priority 2000, dated 2009)

Legend:
HeLa cells = assay: DNA content by propidium iodide staining and flow cytometry in transfected HeLa cells; assay type: cell-based; settings: gated GFP-expressing cells, 48 h after transfection
Procedure: HeLa cells were transfected with GFP-survivin(T34A) in the presence or in the absence of 20 μM of the caspase inhibitor, Z-VAD-fmk. Gated GFP-expressing cells were analyzed 48 h after transfection for DNA content by propidium iodide staining and flow cytometry. The percentages of apoptotic cells with sub-G1 (hypodiploid) […] DNA content are indicated. Apoptotic HeLa cells in GFP-vector transfectants were 8%. Data are representative of one experiment out of at least three independent determinations.
Transfection experiments. For transient transfection, HeLa cells in C-6 tissue culture plates (Costar, Cambridge, Mass.) at ˜60-70% confluency, were incubated in 1 ml of serum-free OptiMEM medium (Life Technologies, Gaithersburg, Md.) for 20 min, and transfected with 2.5 μg of the various plasmid cDNAs plus 9 μl Lipofectamine (Life Technologies). After a 5 h incubation at 37° C., the mixture was aspirated and substituted with complete growth medium for 48-72 h. To generate stable YUSAC-2 transfectants, a survivin(T34A) cDNA was inserted into the HindIII-SpeI sites of the pTet-splice vector (Dr. D. Schatz, Yale University School of Medicine), downstream of the regulatory sequences of the Tet-resistance operon (TetO). […] Gated GFP-expressing cells were analyzed for DNA content by flow cytometry on a FACSort (Becton Dickinson, San Jose, Calif.) using a Cell Quest software. […]

[1] = system: YUSAC-2 human melanoma cells; assay: Melanoma tumor formation in CB.17 immunodeficient mice; assay type: in vivo, CB.17 SCID/beige mice
Procedure: To determine whether interference with survivin function by regulated expression of survivin antagonists could block melanoma tumor formation in CB.17 immunodeficient mice, mice were monitored for 8 weeks following subcutaneous injection, and tumor measurements taken at 4- and 8-week time points (Table I). It was determined that YUSAC-2 cells consistently form localized tumors in 6 to 8-week-old female CB.17 SCID/beige mice (Taconic Farms, Germantown, N.Y.) approximately 3-4 weeks following subcutaneous injection of 1-3×10^6 cells. Animals were monitored for up to 4 months, and neither mortality nor gross metastasis is associated with increasing tumor size (up to 5000 mm^3) or ulceration. One day prior to injection, mice were shaved on the right flank, and the regular drinking water was replaced with 5% sucrose alone or containing […] tet as described (Shockett et al., 1995). Cells were harvested in log-phase growth, washed twice in PBS, resuspended in PBS (12×10^6 cells per ml) and injected (0.25 ml, 3×10^6 cells) subcutaneously. The drinking water was changed every 2-3 days. Tumor size was determined by the product of two perpendicular diameters and the height above the skin surface.
Table 1. Summary of tumor formation for all animals. CB.17 mice were injected with cells and tet was added or withheld from the drinking water. […]

Substance: survivin(T34A): dominant-negative, non-phosphorylatable survivin mutant with Thr34→Ala substitution, expressed from transfected cDNA (also HA- or GFP-tagged)
- hypodiploid (sub-G1) DNA content (HeLa cells): resulted in the appearance of HeLa cells with hypodiploid (sub-G1) DNA content
- Tumor size (mean ± standard deviation, only mice with tumors) ([1]; 8 Weeks, F5.C4 cells s.c., tet absent): 278 ± 116 mm^3
- size and onset of tumors in tet-deprived animals compared to animals given tet ([1]; F5.C4 cells, two tet-deprived animals with tumors): considerably smaller in size and appeared with a markedly delayed onset
